Test results from BindingDB's records for doi:10.1021/jm070014g (2007).

Target: T1, Protein Tat (Human immunodeficiency virus type 1 group M subtype B (isolate HXB2), UniProt P04608)
T1 sequence (P04608 whole entry): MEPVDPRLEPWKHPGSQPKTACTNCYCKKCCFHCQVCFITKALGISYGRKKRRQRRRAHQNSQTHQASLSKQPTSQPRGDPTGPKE
Experiment: Inhibition of Tat-mediated transcription of viral promoter in 293 T cells transfected with HIV1 tat by luciferase reporter gene assay

| EC50 | SMILES |
| --- | --- |
| 10 µM | Cc1ccc(NCCCN)c([N+](=O)[O-])c1 |
| 1 µM | CC(Cl)c1ccc(NCCCN)c([N+](=O)[O-])c1 (configuration not stated) |
